Results on 3 compounds are retold here after patent US10172957B2, “Acid-labile lipophilic prodrugs of cancer chemotherapeutic agents” (priority 2011, dated 2019).

Data set [1] can be described thus: Stability in rat plasma at 37° C. The class given is in vitro ADME. The procedure:
The stability of the acid labile, lipophilic molecular conjugates to hydrolysis in plasma was evaluated to determine their potential to release the active cancer chemotherapeutic agents into systemic circulation and thereby cause general off target toxicity (“side effects”). The conjugates were incubated with plasma of mouse, rat and human origin.
HPLC grade Methanol from Fisher (Fair lawn, NJ, USA). Part No: A452-4 (074833). HPLC grade Water from Fisher (Fair lawn, NJ, USA). Part No: W5-4 (073352). Drug-free mouse, rat and human plasmas were purchased from Innovative Research Inc. (Southfield, Mich., USA). LIPOSYN® I.V. (30% soybean oil and egg yolk phospholipids, Abbott Laboratories) Fat Emulsion from Hospira, Inc. (Lake Forest, Ill.).
Each drug (ART 198, ART 273, ART 488 and ART 489) was prepared in triplicate in mouse, rat and human plasma individually at […] concentration and vortexed for 1 minute and placed in a water bath at 37° C. at a shake rate of 75 per minute. Samples were drawn at time points of 0, 15, 30, 45, 60, 75, 90, 105, 120, 135, 150, 165, 180, 210, 240, 300, 360 and 480 minutes.
Chromatographic separation of the compounds was performed on a Waters Acquity UPLC™ using a BEH C18 column (1.7 μm, 2.1×50 mm). The mobile phase consisted of Methanol: 0.1% Formic acid (80:20). The flow rate was 0.3 ml/min; the sample injection volume was 5 μL, resulting in a 3 minute run time.
The MS instrumentation consisted of a Waters Micromass Quattro Micro™ triple-quadrupole system (Manchester, UK). The MS system was controlled by a 4.0 version of MassLynx software. Ionization was performed in the positive electrospray ionization mode. MS/MS conditions were the following: capillary voltage 3.02 kV; cone voltage 50 v; extractor voltage 5 v; and RF lens voltage 0.5 v. The source and desolvation temperatures were 100° C. and 400° C. respectively, and the desolvation and cone gas flow were 400 and 30 L/hr, respectively.
The selected mass-to-charge (m/z) ratio transitions of the ART 198 used in the selected ion monitoring (SIM) were: for ART 198, 617 (M+K)^+, for ART 273, 589 (M+K)^+, for ART 488, 913 (M+Na)^+, and for ART 489, 957 (M+Na)^+. The dwell time was set at 200 msec. MS conditions were optimized using direct infusion of standard solutions prepared in methanol and delivered by a syringe pump at a flow rate of 20 μL/min.
Samples of 100 μL were collected at time points of 0, 15, 30, 45, 60, 75, 90, 105, 120, 135, 150, 165, 180, 210, 240, 300, 360 and 480 minutes respectively and the reaction was terminated with methanol. In a separate set of experiments the acid labile, lipophilic molecular conjugates were dissolved in a small amount of ethanol and diluted into a lipid emulsion (Liposyn®) and added to mouse and human plasma before incubation and the hydrolysis of the conjugates was similarly measured. Collected plasma samples of 100 μL containing drug were placed in separate Eppendorf micro centrifuge tubes for processing. Methanol (200 μL) was added to extract the drug using the protein precipitation technique. The micro tubes were then vortex mixed for 10 minutes and centrifuged for 15 minutes at a speed of 10,000 rpm (Eppendorf 5415C centrifuge). The supernatant was collected and filtered using a 0.45 μm filter (Waters 13 mm GHP 0.45 μm) before analysis.
The weighted linear least-squares (1/x) regression was used as the mathematical model. The coefficient (r) for the compounds ranged from 0.9925 to 0.9999. The calibration range was selected according to the concentrations anticipated in the samples to be determined.
Samples were collected at various times and the percent remaining of the acid labile, lipophilic molecular conjugate of the cancer chemotherapeutic agent was determined along with the percent of the chemotherapeutic agent released from the hydrolysis of the conjugate.

The test system of the next data set is CCRF-CEM (CEM) cells. Put plainly: MTT-based cytotoxicity assay, CEM. It is filed as cell-based, human. The conditions noted are these: Homo sapiens, CCRF-CEM, read-out: IC50 CEM (HTL), CEM human T-lymphoblastoid, MTT. From the text:
A second evaluation of the cytotoxicity of the acid labile, lipophilic molecular conjugates was undertaken.
These lines included a uterine sarcoma line, MES-SA, and its doxorubicin-resistant subline, MES-SA/Dx5. See W. G. Harker, F. R MacKintosh, and B. I. Sikic. Development and characterization of a human sarcoma cell line, MES-SA, sensitive to multiple drugs. Cancer Research 43: 4943-4950 (1983); W. G. Harker and B. I. Sikic. Multidrug (pleiotropic) resistance in doxorubicin-selected variants of the human sarcoma cell line MES-SA. Cancer Research 45: 4091 4096 (1985).
The second set of cells tested, CCRF-CEM or simply CEM, were derived from the blood of a patient with acute lymphoblastic leukemia. G. E. Foley, H. Lazarus, S. Farber, B. G. Uzman, B. A. Boone, and R E. McCarthy. Continuous culture of human lymphoblasts from peripheral blood of a child with acute leukemia. Cancer 18: 522-529 (1965). The subline CEM/VLB100 was developed to be resistant to up to vinblastine at 100 ng/ml. W. T. Beck, T. J. Mueller, and L. R. Tanzer. Altered surface membrane glycoproteins in Vinca alkaloid-resistant human leukemic lymphoblasts. Cancer Research 39: 2070-2076 (1979). Drug resistance is achieved by overexpression of the MDR1 gene. Resistance in the CEM subline designated CEM/VM-1-5, however, is “atypical.” M. K. Danks, J. C. Yalowich, and W. T. Beck. Atypical multiple drug resistance in a human leukemic cell line selected for resistance to teniposide (VM-26). Cancer Research 47: 1297-1301 (1987). The classes of drugs included in the “classic” multiple drug resistance phenotype are Vinca alkaloids, anthracyclines, epipodophyllotoxins and antibiotics. However, CEM/VM-1-5 cells retain sensitivity to the Vinca alkaloids despite resistance and cross-resistance to etoposide, anthracyclines and mitoxantrone. Danks, M. K.; Schmidt, C. A.; Cirtain, M. C.; Suttle, D. P.; Beck, W. T., Altered catalytic activity of and DNA cleavage by DNA topoisomerase II from human leukemic cells selected for resistance to VM-26. Biochemistry 1988, 27, 8861-8869. Resistance in CEM/VM-1-5 cells is effected by over expression of the […]. CEM, CEM/VLB100 and CEM/VM-1-5 cells were obtained from Dr. WT Beck, University of Illinois at Chicago.
A general note: Tetrazolium assays rely on reduction of a dye to a coloured formazan, in cell work by metabolically active cells.

As for `COC(=O)[C@@]12OC[C@]34[C@H]([C@@H](O)[C@@H]1O)[C@@]1(C)CC(=O)C(O)=C(C)[C@@H]1C[C@H]3OC(=O)C(OC(=O)CC1(O)CCCCC1)[C@@H]24` (stereo partly shown) [ART 198], the “percent remaining of initial drug” value in data set [1] (0 min) came out at 100%; in data set [1] (15 min), 95.8%; in data set [1] (30 min), 84.0%; in data set [1] (45 min), 66.0%; in data set [1] (60 min), 55.7%; in data set [1] (75 min), 54.4%. Also, the “percent remaining of initial drug” value in data set [1] (90 min) was 54.2%; in data set [1] (105 min) it was 54.0%; in data set [1] (120 min), 52.1%; in data set [1] (135 min), 48.9%; in data set [1] (150 min), 48.9%; in data set [1] (165 min), 45.4%. Also, the “percent remaining of initial drug” value in data set [1] (180 min) amounted to 44.0%; in data set [1] (210 min), 42.7%; in data set [1] (240 min), 42.2%; in data set [1] (300 min) it was 34.3%; in data set [1] (360 min), 30.1%; in data set [1] (480 min) it was 30.1%. In addition, in the data set with CCRF-CEM (CEM) cells, the IC50 was 113 ± 53 nM.

Take `CCCCCCCCCCCCCCCC1OCC(COC(=O)OC2=C(C)[C@@H]3C[C@H]4OC(=O)C(OC(=O)CC5(O)CCCCC5)[C@H]5[C@]6(C(=O)OC)OC[C@]45[C@H]([C@@H](O)[C@@H]6O)[C@@]3(C)CC2=O)O1` (stereo partly shown) [ART 489]: the “percent remaining of initial drug” value in data set [1] (0 min) is reported as 100%; in data set [1] (15 min) it was 93.2%; in data set [1] (30 min) it was 75.8%; in data set [1] (45 min) it was 74.3%; in data set [1] (60 min), 75.0%; in data set [1] (75 min) it was 74.4%. For the same compound, the “percent remaining of initial drug” value was determined as 74.4% in data set [1] (90 min); 73.7% in data set [1] (105 min); 69.9% in data set [1] (120 min); 68.5% in data set [1] (135 min); 67.3% in data set [1] (150 min); 63.0% in data set [1] (165 min). The “percent remaining of initial drug” value in data set [1] (180 min) is on record as 63.0%; in data set [1] (210 min), 62.7%; in data set [1] (240 min), 61.7%; in data set [1] (300 min), 55.4%; in data set [1] (360 min), 48.2%; in data set [1] (480 min), 34.3%. The IC50 with CCRF-CEM (CEM) cells turned out to be 21 ± 2 nM.

For `CCCCCCCCCCCCCCCC1OCC(COC(=O)O[C@@H]2C(=O)C=C(C)[C@@H]3C[C@H]4OC(=O)C(OC(=O)CC(O)(C(C)C)C(C)C)C5[C@@H](C)[C@@H](O)[C@@]6(O)OC[C@@]54C6[C@@]23C)O1` (stereo partly shown) [ART 488], the “percent remaining of initial drug” value in data set [1] (480 min) turned out to be 33.3%. Further, the IC50 with CCRF-CEM (CEM) cells turned out to be 4 nM.

One may read the IC50 as the concentration needed to halve the response being measured.
